According to ChEMBL document CHEMBL1153574, “Novel topoisomerase I-targeting antitumor agents synthesized from the N,N,N-trimethylammonium derivative of ARC-111, 5H-2,3-dimethoxy-8,9-methylenedioxy-5-[(2-N,N,N-trimethylammonium)ethyl]dibenzo[c,h][1,6]naphthyridin-6-one iodide” (Eur J Med Chem, 2009):

How the values were obtained:
[1] = Cytotoxicity against multidrug resistant human KBH5.0 cells overexpressing BCRP after 4 days by MTT assay; type: functional, cell-based; settings: KBH5.0 cell, 96 h
[2] = biological target: T1, DNA topoisomerase 1 (Homo sapiens) (UniProt P11387); experiment: Effect on human topoisomerase 1 expressed in Sf9 insect cells assessed as effective concentration required for 10% cleavage of plasmid DNA relative to topotecan
T1 sequence (whole entry): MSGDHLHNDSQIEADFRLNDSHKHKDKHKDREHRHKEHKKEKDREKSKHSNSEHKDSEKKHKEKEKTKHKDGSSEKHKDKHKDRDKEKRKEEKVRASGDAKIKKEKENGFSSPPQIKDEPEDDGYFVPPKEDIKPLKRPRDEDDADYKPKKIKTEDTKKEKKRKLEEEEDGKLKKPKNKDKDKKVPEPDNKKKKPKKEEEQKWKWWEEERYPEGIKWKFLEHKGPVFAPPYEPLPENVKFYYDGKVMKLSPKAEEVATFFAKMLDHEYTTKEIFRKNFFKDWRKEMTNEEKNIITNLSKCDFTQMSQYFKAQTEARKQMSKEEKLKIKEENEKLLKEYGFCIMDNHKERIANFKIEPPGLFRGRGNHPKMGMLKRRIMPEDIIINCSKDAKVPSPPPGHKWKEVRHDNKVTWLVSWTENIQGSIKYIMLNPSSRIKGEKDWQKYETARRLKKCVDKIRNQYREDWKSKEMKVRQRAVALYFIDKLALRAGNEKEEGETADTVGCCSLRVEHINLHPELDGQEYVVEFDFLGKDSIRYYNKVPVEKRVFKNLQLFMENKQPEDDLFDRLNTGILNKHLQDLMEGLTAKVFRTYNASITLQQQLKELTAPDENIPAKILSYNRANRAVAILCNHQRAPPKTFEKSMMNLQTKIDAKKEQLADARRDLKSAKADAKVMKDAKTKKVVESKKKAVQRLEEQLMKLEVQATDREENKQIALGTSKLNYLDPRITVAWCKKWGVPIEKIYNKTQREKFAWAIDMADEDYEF

[3] = Cytotoxicity against human RPMI8402 cells after 4 days by MTT assay; type: functional, cell-based; settings: RPMI 8402, 96 h
[4] = Cytotoxicity against human CPT-K5 cells after 4 days by MTT assay; type: functional, cell-based; settings: CPT-K5, 96 h
P388 = experiment: Cytotoxicity against mouse P388 cells after 4 days by MTT assay; type: functional, cell-based; settings: P388, 96 h
[5] = Cytotoxicity against human KB3-1 cells after 4 days after MTT assay; type: functional, cell-based; settings: KB 3-1, 96 h
[6] = Cytotoxicity against multidrug resistant human KBV1 cells overexpressing MDR1 after 4 days by MTT assay; type: functional, cell-based; settings: KB-V1, 96 h
[7] = Cytotoxicity against mouse P388/CPT45 cells after 4 days by MTT assay; type: functional, cell-based; settings: P388CPT45, 96 h

| Compound | IC50 [1] [µM] | Activity [2] | IC50 [3] [µM] | IC50 [4] [µM] | IC50 (P388) [µM] | IC50 [5] [µM] | IC50 [6] [µM] | IC50 [7] [µM] |
| --- | --- | --- | --- | --- | --- | --- | --- | --- |
| COc1cc2c(=O)n(CCNC(CO)CO)c3c4cc5c(cc4ncc3c2cc1OC)OCO5 | 0.75 | 0.2 | 0.054 | > 10 | 0.08 | 0.026 | 2 | – |
| COc1cc2c(=O)n(CCN(CCO)CCO)c3c4cc5c(cc4ncc3c2cc1OC)OCO5 | 0.28 | 0.48 | 0.04 | 0.32 | 0.03 | 0.023 | 0.35 | 0.25 |
| COc1cc2c(=O)n(CCNC3CC3)c3c4cc5c(cc4ncc3c2cc1OC)OCO5 | 0.008 | 0.3 | 0.01 | 0.3 | 0.009 | 0.004 | 0.04 | 0.11 |
| CC[C@@]1(O)C(=O)OCc2c1cc1n(c2=O)Cc2cc3ccccc3nc2-1 | – | 0.2 | – | – | – | – | – | – |
| COc1cc2c(=O)n(CCn3ccnn3)c3c4cc5c(cc4ncc3c2cc1OC)OCO5 | 6 | > 10 | 3.5 | > 10 | 4.4 | 0.7 | 10 | > 10 |
| COc1cc2c(=O)n(CCN(C)CCO)c3c4cc5c(cc4ncc3c2cc1OC)OCO5 | 0.05 | 0.04 | 0.015 | 0.58 | 0.012 | 0.006 | 0.06 | 0.33 |
| COc1cc2c(=O)n(CCNC(CO)(CO)CO)c3c4cc5c(cc4ncc3c2cc1OC)OCO5 | 1.8 | 2 | 0.33 | 7 | 0.33 | 0.25 | 1.8 | 3.5 |
| COc1cc2c(=O)n(CCN(C)C)c3c4cc5c(cc4ncc3c2cc1OC)OCO5 | – | 0.3 | – | – | – | 0.005 | 0.005 | – |
| COc1cc2c(=O)n(CCN(C)CCN(C)C)c3c4cc5c(cc4ncc3c2cc1OC)OCO5 | 0.21 | 0.7 | 0.045 | 2.2 | 0.035 | 0.05 | 0.6 | 0.07 |
| COc1cc2c(=O)n(CCNCCN(C)C)c3c4cc5c(cc4ncc3c2cc1OC)OCO5 | 0.75 | 6.4 | 0.14 | 2.6 | 0.075 | 0.06 | 3.4 | 0.34 |
| COc1cc2c(=O)n(CCO)c3c4cc5c(cc4ncc3c2cc1OC)OCO5 | 0.04 | 4.7 | 0.03 | > 10 | 0.03 | 0.027 | 0.04 | 0.9 |
| COc1cc2c(=O)n(CCn3ccnc3)c3c4cc5c(cc4ncc3c2cc1OC)OCO5 | 0.58 | 2.3 | 0.21 | > 10 | 0.2 | 0.15 | 1.8 | > 10 |
| CCN(CC)CCNCCn1c(=O)c2cc(OC)c(OC)cc2c2cnc3cc4c(cc3c21)OCO4 | 0.3 | 5.2 | 0.15 | 9 | 0.23 | 0.04 | 1.2 | 0.35 |
| COc1cc2c(=O)n(CCOC(=O)CN(C)C)c3c4cc5c(cc4ncc3c2cc1OC)OCO5 | 0.05 | 0.3 | 0.03 | 4.6 | 0.027 | 0.032 | 0.035 | 0.39 |
